One assay relates to Bemisia tabaci. As to the kind of experiment: Example D: Bemisia tabaci, leaf dip method (cotton leaves). The assay is classed as in vivo. Conditions: foliar, freshly emerged adults, 72 h after release, dead and moribund combined, read-out: percent mortality. How it is done: (§1) Test solutions were prepared according to the procedure described herein below (500 PPM):
(§2) • 1. Eppendorf Vortex mixer (ThermoMixer C) and 1.5 mL Eppendorf tubes • 2. Beaker—100 mL • 3. Micro-pipette Reagents: • 1. Surfactant Solution • 2. De-mineralized (DM) Water Procedure: • 1. Weigh 10 mg of the compound of the present invention to be tested in an Eppendorf Tube. • 2. Add 200 mg of the Surfactant Solution into the tube. • 3. Fix the tube in Eppendorf Vortex mixer and start vortexing at 2000 rpm. • 4. Mix on Vortex mixer for 30 min. After 30 min, observe the sample over a microscope at 400× resolution. • 5. Add 1.0 mL DM water into the tube, close the cap, shake the tube thoroughly and transfer the contents, along with the beads, into a beaker. • 6. To rinse the tube, add another 1.0 mL of DM water into the tube, close the cap, shake well and transfer this into the same beaker. • 7. Repeat […] one more time so that the tube is rinsed well and all the compound of the present invention is transferred to the beaker. • 8. Add 16.8 mL of DM water into the beaker and stir well. • 9. Immediately use this sample for biological testing. • 10. Further dilutions can be prepared by taking appropriate quantity of the aliquot of Step 8, immediately after stirring, and diluting as per requirement. The sample solution must be well mixed just before biological testing.
Leaf dip method was used for screening, wherein the required quantity of the compounds were weighed and dissolved in the test solution into the tube and vortex at 2000 rpm with Zirconia beads for 90 min and for proper mixing, then mixed with 0.01% Triton-X solution to get the desired test concentration. Cotton leaves were dipped in the solution for 10 seconds, shade dried for 20 min and then leaves were kept in glass units with petiole dipped in water. […] Observations on dead, moribund and live […] were recorded at 72 h after the release. Percent mortality was calculated by combining dead and moribund adults. […]

The subject of a further assay is Myzus persicae. As to the kind of experiment: Example E: Myzus persicae, leaf dip method (capsicum leaves). The assay is classed as in vivo. Conditions: foliar, third instar nymphs, 72 h after release, dead and moribund combined, read-out: percent mortality. How it is done:
as §1, §2
Leaf dip method was used for screening, wherein the required quantity of the compounds were weighed and dissolved in the test solution into the tube and vortex at 2000 rpm with Zirconia beads for 90 min and for proper mixing, then mixed with 0.01% Triton-X solution to get the desired test concentration. Capsicum leaves were dipped in the solution for 10 seconds, shade dried for 20 min and then leaves were kept in glass units with petiole dipped in water. Known numbers of third instar nymphs were released and were kept in the plant growth chamber at a temperature of 25° C. and Relative Humidity of 70%. Observations on dead, moribund and live nymphs were recorded at 72 h after the release. Percent mortality was calculated by combining dead and moribund nymphs. The following compound numbers

Broadly, the mortality is the share of the test organisms that died. On to `Cc1cc(Cl)cc(C(=O)NC(C)(C)C)c1NC(=O)c1cc(OC2CS(=O)(=O)C2)nn1-c1ncccc1Cl` [Compound 99, N-(2-(tert-butylcarbamoyl)-4-chloro-6-methylphenyl)-1-(3-chloropyridin-2-yl)-3-((1,1-dioxidothietan-3-yl)oxy)-1H-pyrazole-5-carboxamide], for which the mortality at 300 ppm with Bemisia tabaci was > 50%.
Take `CC(C)(C)NC(=O)c1cc(Cl)cc(Cl)c1NC(=O)c1cc(OC2CSC2)nn1-c1ncccc1Cl` [Compound 176, N-(2-(tert-butylcarbamoyl)-4,6-dichlorophenyl)-1-(3-chloropyridin-2-yl)-3-(thietan-3-yloxy)-1H-pyrazole-5-carboxamide]: the mortality at 300 ppm in the assay on Myzus persicae and in the assay with Bemisia tabaci was > 50% in each case.
For `Cc1cc(Cl)cc(C(=O)NC(C)(C)C)c1NC(=O)c1cc(OC2CSC2)nn1-c1ncccc1Cl` [Compound 97, N-(2-(tert-butylcarbamoyl)-4-chloro-6-methylphenyl)-1-(3-chloropyridin-2-yl)-3-(thietan-3-yloxy)-1H-pyrazole-5-carboxamide], the mortality at 300 ppm in the assay with Myzus persicae and in the assay on Bemisia tabaci was > 50% throughout.

For the origin of these results see patent US12221436B2, “Anthranilamides, their use as insecticide and processes for preparing the same” (PI INDUSTRIES LTD., priority 2018, dated 2025).
